Data taken from patent publication US20090142364A1, “Method for finding novel peptide immunostimulatory adjuvants, compositions and methods of use” (priority 2007, published 2009).
“Also recorded” adds a separate entry of the source. Where a SMILES comes first, the peptide text is derived from it.

Assays:
[1] = tested on: antibody response to ovalbumin; assay: Adjuvant activity: antibody response to ovalbumin in mice, titer by solid-phase ELISA; type: in vivo, Balb/c mice; details: for Adjuvant index / Anti-ovalbumin antibody titer: i.p.
Experimental: To study the adjuvant activity of RN-peptide, Balb/c mice were immunized with ovalbumin in saline in the presence of the RN-peptide, its analogs or GMDP, or without any adjuvant (control). The adjuvant was introduced on first immunization, whereas second immunization was carried out with half dose of OVA without adjuvant.
Adjuvant activity. Groups of 5 Balb/c mice were administered i.p. with 2.5-10 μg ovalbumin (Sigma, USA) per mouse in 200 μl PBS. RN-peptide (0.1-100 μg) or GMDP (1-100 μg) was introduced simultaneously with ovalbumin on first immunization. The second immunization was carried out 28 days later with half dose of ovalbumin (1.25-5.0 μg/200 μl) without adjuvant. Control mice received ovalbumin twice without adjuvant. Three days after the second immunization mice were bled from the tail vein. […] Control mice received polysaccharide without any adjuvant. Five and ten days after immunization mice were bled.
The antibody titer was evaluated by solid-phase ELISA as described by Douillard and Hoffman (1983) Enzyme-linked immunosorbent assay for screening monoclonal antibody production using enzyme-labeled second antibody. The antigen (ovalbumin or polysaccharide), 5 μg/ml in bicarbonate buffer, pH 8.6 (100 μl), was introduced into wells of 96-well microtiter plate. Incubation was carried out overnight at 4° C. The plate was washed 5 times with PBS and 5 times with PBS/0.1% Tween-20 (PBS-T). Remaining binding sites were blocked with 1% gelatin in PBS (2 h, room temperature). After washing 100 μl of mouse serum (1:100 dilution) was added, and serial three-fold dilutions were made. Bound antibodies were visualized by incubation with Horse-Radish-Peroxidase (HRP)-conjugated rabbit anti-mouse antibodies and OPD as the chromogenic substrate.

[2] = tested on: Balb/c mice peritoneal mononuclear cells (PMC); assay: Ia-antigen-inducing effect, flow cytometry, peritoneal mononuclear cells; type: cell-based, mouse; details: at optimal dose, overnight treatment
Experimental: We studied the Ia-antigen-inducing activity of RN-peptide by stimulation in vitro of murine peritoneal macrophages. Flow cytometry was used to assess Ia-antigen expression. […] The pyrogenicity of the peptide was studied in Wistar rats. […] The dynamics of alteration of rectal temperature were monitored during 2.5 h.
Balb/c mice peritoneal mononuclear cells (PMC) were isolated by Histopaque density gradient centrifugation. PMC or WEHI-3 cells were incubated with RN-peptide (0.1-10 μg/ml) or GMDP (positive control) or saline (negative control) in RPMI 1640 medium, supplemented with 5% fetal calf serum upon rotary mixing for 18 h at 37° C. Cells were stained on ice bath with MKD6 anti-Ia^d mAb (supernatant from the in vitro culture, 1:10 dilution) and FITC-labeled anti-mouse immunoglobulin (Sigma, USA, 1:300 dilution), and then with phycoerythrin-labeled F4/80 mAb (Caltag, USA, 0.2 μg/100 μl). Ia antigen expression was assessed by flow cytometry using EPICS “Elite” (Coulter, USA).

E. coli strain K12 = assay: Anti-infective action: survival of Balb/c mice infected with E. coli strain K12; type: in vivo; details: 1 ng-10 μg i.p. 7 days before infection, LD100 and LD50
Experimental: Groups of Balb/c mice (20-22 g) were administered i.p. with different doses of RN-peptide (1 ng-10 μg) or GMDP (1 ng-10 μg) in saline. Control mice received saline. […] Survival of mice was assessed during three days.

[3] = adjuvant 0.1 μg, ovalbumin 2.5 μg then 1.25 μg
[4] = adjuvant 1 μg, ovalbumin 2.5 μg then 1.25 μg
[5] = adjuvant 1 μg, ovalbumin 10 μg then 5 μg
[6] = adjuvant 10 μg, ovalbumin 2.5 μg then 1.25 μg
[7] = adjuvant 10 μg, ovalbumin 10 μg then 5 μg
[8] = adjuvant 100 μg, ovalbumin 2.5 μg then 1.25 μg
[9] = adjuvant 100 μg, ovalbumin 10 μg then 5 μg

CC[C@H](C)[C@H](NC(=O)[C@H](CCCCN)NC(=O)[C@H](C)NC(=O)[C@H](Cc1c[nH]cn1)NC(=O)[C@H](Cc1ccc(O)cc1)NC(=O)[C@H](CCCNC(=N)N)NC(=O)[C@@H]1CCCN1C(=O)[C@@H]1CCCN1C(=O)[C@@H](NC(=O)[C@@H](N)CCCNC(=N)N)C(C)C)C(=O)N[C@@H](CO)C(=O)N1CCC[C@H]1C(=O)N[C@@H](CCSC)C(=O)N[C@H](C(=O)N[C@@H](CC(N)=O)C(=O)O)C(C)C [RN-peptide, RVPPRYHAKISPMVN] (H-RVPPRYHAKISPMVN-OH)
adjuvant dose of highest response ([1]; 2.5 μg OVA): 10 µg
anti-ovalbumin antibody titer (in words) ([1]; 100 μg/mouse): diminished
Adjuvant index [1, 3]: 0.92 ± 0.04
Anti-ovalbumin antibody titer [1, 3]: 2250 ± 100
Adjuvant index [1, 4]: 1.75 ± 0.06
Anti-ovalbumin antibody titer [1, 4]: 4300 ± 150
Adjuvant index [1, 5]: 7.3 ± 0.08
Anti-ovalbumin antibody titer [1, 5]: 43500 ± 400
Adjuvant index [1, 6]: 7.55 ± 0.06
Anti-ovalbumin antibody titer [1, 6]: 19000 ± 200
Adjuvant index [1, 7]: 2.6 ± 0.05
Anti-ovalbumin antibody titer [1, 7]: 15700 ± 280
Adjuvant index [1, 8]: 0.8 ± 0.008
Anti-ovalbumin antibody titer [1, 8]: 2000 ± 20
Adjuvant index [1, 9]: 0.9 ± 0.03
Anti-ovalbumin antibody titer [1, 9]: 5400 ± 200
adjuvant dose at which antibody titer peaked ([1]; first immunization with 5-10 μg of OVA): 1 μg/mouse
adjuvant activity (in words) ([1]; ovalbumin in mice): strongly enhanced antibody response
anti-ovalbumin antibody titer relative to the titer of control serum ([1]; under optimal conditions): 6.5-7.5 times
increase in Ia-positive cell number [2]: 10%
protection from E. coli infection (in words) (E. coli strain K12): substantial protection; also recorded: substantial anti-infective mode of action
